Patent publication US8183005B1, “Pharmaceutical agents for treating HCV infections” (priority 2004, dated 2012)

Columns and labels:
Type in all cases: cell-based
in vitro = details: human, Huh-3-1 replicon cells, three days, Cell Counting Kit-8; read-out: Cytotoxicity CC50
Experimental: (§1) Firefly luciferase HCV replicon cells (Huh-3-1) suspended in Dulbecco's MEM (Gibco Cat. No. 10569) containing 5% fetal bovine serum (Hyclone Cat. No. SH30071.03) were plated onto a 96-well plate at 5000 cells/well, and cultured overnight under 5% CO2 at 37° C. Approximately 20 hours later, fumonisin B1 was added to a final concentration of 1.37 μM to 1000 μM by carrying out a sequential three-fold dilution, and the cells were then cultured for three more days. The assay was carried out by preparing two types of assay plates: one an opaque white plate and the other a transparent plate. After culturing, the white plate was subjected to the Steady-Glo Luciferase Assay System (Promega Cat. No. E2520). More specifically, 100 μL of reagent was added to each well, mixed three to four times using a pipette, and then stood for five minutes before luminescence was measured using 1450 MicroBeta TRILUX (WALLAC). IC50 (50% inhibitory concentration) of a pharmaceutical agent was calculated by subtracting the value obtained without adding the cells as the background value from all of the values, and then defining the level of inhibition without addition of the pharmaceutical agent as 0%. A Cell Counting Kit-8 (DOJINDO Laboratories, Cat. No. 341-07761) was used for the cytotoxicity assays. 10 μL of reagent was added to each well, mixed three to four times using a pipette, and then stood for approximately 30 minutes; measurements were performed when OD450 nm reached approximately 1.0. IC50 (50% inhibitory concentration) of a pharmaceutical agent was calculated by subtracting the value obtained without adding the cells as the background value from all of the values, and then defining the level of inhibition without addition of the pharmaceutical agent as 0%.
(§2) Based on the results of Example 5, the following method was used to measure the effect on cytotoxicity and HCV replicon activity under conditions in which Huh-3-1 cells show reduced LCB1 expression. More specifically, cells were plated onto a 96-well plate at 3500 cells per well, and cultured overnight under 5% CO2 at 37° C. 1.75 μL of 2 μM siRNA was added to 23.3 μL of ECR buffer (buffer included in the RNAiFect Kit), this was stirred vigorously, and then 0.31 μL of RNAiFect transfection reagent was added. This was stirred gently at room temperature and then allowed to stand for ten minutes. siRNA was added to a final concentration of 35 nM, and this was cultured for four days. The effect on cytotoxicity was determined by adding 10 μL of Cell Counting Kit-8 (DOJINDO Laboratories Cat. No. 341-07761) to the medium, mixing three to four times using a pipette, and then allowing this to stand for one hour at 37° C. Absorbance was then measured at 450 nm using a microplate reader Emax (Molecular Devices). After incubation, the medium was exchanged for fresh medium, and the plate was subjected to the Steady-Glo Luciferase Assay System (Promega Cat. No. E2520). 100 μL of reagent was added to each well, mixed three to four times using a pipette, and then allowed to stand for five minutes. Luminescence was then measured using 1450 MicroBeta TRILUX (WALLAC) to determine the HCV replicon activity. IC50 (50% inhibitory concentration) of a pharmaceutical agent was calculated by subtracting the value obtained without adding the cells as the background value from all of the values, and then defining the level of inhibition without addition of the pharmaceutical agent as 0%.
(§3) A Cell Counting Kit-8 (DOJINDO Laboratories, Cat. No. 341-07761) was used for the cytotoxicity assays. More specifically, 10 μL of Cell Counting Kit-8 was added to the transparent plate, and this was warmed at 37° C. for 30 to 60 minutes. Using a 96-well plate reader, absorbance was measured at a wavelength of 450 nm with a reference wavelength of 630 nm. […]

HCV replicon = HCV replicon assay (luciferase); details: for IC50: firefly luciferase HCV replicon cells (Huh-3-1), cultured three days with compound; for HCV replication (replicon activity) versus viable cell count: HCV replicon cells, 72 hours; for HCV replicon activity compared with control siRNA-treated cells: Huh-3-1 cells, siRNA 35 nM, four days
Experimental: as §1, §2
First, to quantify the copy number of HCV-RNA, an RNA was constructed such that a firefly-derived luciferase gene was introduced into the HCV-RNA as a reporter gene. According to the method of Krieger et al. (J. Virol., 75: 4614), the luciferase gene was introduced immediately after the Internal Ribosome Entry Site (IRES) of the HCV gene, so that the gene was fused with the neomycin-resistance gene. […]

Huh-3-1 cells = test: in vitro; details: for CC50: Huh-3-1 replicon cells, three days, Cell Counting Kit-8, read-out: Cytotoxicity CC50; for effect of siRNA treatment on cytotoxicity: Huh-3-1 cells, siRNA 35 nM, four days
Experimental: as §1, §2, §3

HCV RNA replication = test: Northern blot analysis of HCV RNA replication in Huh-3-1 replicon cells; details: Hepatitis C virus, 72 h, read-out: concentration reducing replicon RNA by 50%
Experimental: Cells were collected 72 hours later, total RNAs were extracted, and this was subjected to Northern blot analysis using a neomycin resistance gene as a probe according to the NorthernMax Kit method, available from Ambion.
The probes were labeled with biotin using a BrightStar Psoralen-Biotin Kit (Ambion #9860G3).
1 μg of the total RNAs were electrophoresed on a 1% agarose gel, and then the RNAs were stained with ethidium bromide. The resulting gel was photographed and decolorized, then NorthernMax transfer buffer was used for two hours to transfer the RNAs to the transfer membrane. While the membrane was still wet, the RNAs were fixed to the transfer membrane using a UV crosslinker. The membrane was pretreated in ULTRAhyb for 30 minutes at 42° C. while being rotated in a Hybridization oven. This pretreatment solution was then discarded, and the membrane was treated by adding the biotinylated neomycin resistance gene and 10 mL of ULTRAhyb solution, and then shaking overnight at 42° C.
The ULTRAhyb solution was then discarded, and 15 mL of High Stringency Buffer pre-warmed to 42° C. was added to the membrane, and this was shaken for 30 minutes at 42° C. This same operation was then repeated once. The transfer membrane was washed using enough wash buffer to soak the membrane. The transfer membrane was shaken in a blocking buffer for 30 minutes, then this solution was discarded. […]

HCV protein (NS3) = test: Western blot analysis of HCV protein synthesis in Huh-3-1 replicon cells; details: Hepatitis C virus, 72 h, read-out: concentration reducing expression of HCV proteins by 50%
Experimental: After 72 hours, the culture medium was discarded, phosphate buffered saline (PBS) was added, and the cells were dislodged by pipetting and then collected by centrifugation. A lysis solution for phosphate (50 mM Tris-HCl (pH 7.5), 0.5% Triton, 3 mM EDTA, 150 mM NaCl, 12 mM glycerophosphate, 50 mM NaF, 1 mM Na3VO4, 0.5 mM PMSF, and 0.5 mM aporotinin) was added to the cells, the cells were disrupted by pipetting, and the supernatant was collected by high-speed centrifugation. A protein assay was carried out using Dye Reagent (Nacalai Tesque #074-27) (Bovine Gamma Globulin, Standard solution, BIO-RAD #500-0005). […] Rainbow molecular weight markers (Amersham Bioscience #RPN756) were used as molecular weight size markers. […] Western analysis was performed using a rabbit antibody against NS3, derived from an HCV protein. Anti-actin rabbit antibody was used as an internal standard.

[1] = system: LCB1 (a subunit of the SPT heterodimer); test: Inhibition of LCB1 protein expression by siRNAs, Western blotting; details: Huh-3-1 cells, siRNA 35 nM, four days
Experimental: 1.2×10^5 Huh-3-1 cells were plated onto a 6-well plate, and the cells were cultured overnight under 5% at 37° C. 2.3 μL of 20 μM siRNA was added to 100 μL of ECR buffer (a buffer included in the RNAiFect Kit), this was stirred vigorously, and after the addition of 4 μL of RNAiFect transfection reagent (Qiagen Cat. No. 301605) this was stirred gently at room temperature and allowed to stand for ten minutes. siRNA was added to a final concentration of 35 nM, and this was cultured for four days.
The cells were suspended in a cell lysis buffer (50 mM Tris-HCl (pH 7.5), 0.5% Triton, 3 mM EDTA, 150 mM NaCl, 12 mM glycerophosphate, 50 mM NaF, 1 mM Na3VO4, 0.5 mM PMSF, 0.5 mM aporotinin), and were allowed to stand on ice for ten minutes. This was centrifuged at 15,000×g for ten minutes, and the supernatant was collected. After quantifying the protein, the amount of protein in each sample was adjusted to 10 μg, and this was added to ¼ volume of 5×SDS sample buffer (125 mM Tris-HCl (pH 6.5), 25% Glycerol, 5% SDS, 0.25% BPB, 5% 2-Mercaptoethanol) and treated for five minutes at 98° C. […] The membranes were washed with 0.1% Tween 20/PBS, and then reacted for one minute with ECL, and the resulting signals were detected by autoradiography.

For CCCCCCCC(=O)CCCCCC/C=C/[C@H](C(=O)N[C@@H](Cc1ccc(C(F)(F)F)cc1)C(=O)O)[C@@](O)(CC(=O)O)C(=O)O [(18)], which CC50 (in vitro) is on record?
Its CC50 is > 1000 nM.

And the IC50 (HCV replicon; Hepatitis C virus, 72 h)?
The IC50 was 68 nM.

For CCCCCCCC(=O)CCCCCC/C=C/[C@H](C(=O)N[C@@H](Cc1ccc(C#N)cc1)C(=O)O)[C@@](O)(CC(=O)O)C(=O)O [(19)], which CC50 (in vitro) is on record?
The CC50 was > 1000 nM.

What about the IC50 (HCV replicon; Hepatitis C virus, 72 h) of the same compound?
The IC50 was 12 nM.

Which CC50 (in vitro) does the source give for CCCCCCCC(=O)CCCCCC/C=C/[C@H](C(=O)N[C@@H](Cc1ccc(Cl)cc1)C(=O)O)[C@@](O)(CC(=O)O)C(=O)O [(20)] here?
The CC50 was > 1000 nM.

What about the IC50 (HCV replicon; Hepatitis C virus, 72 h) of the same compound?
Its IC50 is 55 nM.

Which results are given for CCCCCCCC(=O)CCCCCC/C=C/[C@H](C(=O)N[C@@H](Cc1ccc([N+](=O)[O-])cc1)C(=O)O)[C@@](O)(CC(=O)O)C(=O)O [(21)]?
CC50 (in vitro): > 1000 nM; IC50 (HCV replicon; Hepatitis C virus, 72 h): 80 nM

With CCCCCCCC(=O)CCCCCC/C=C/[C@H](C(=O)N[C@@H](Cc1ccc(OCCCC)cc1)C(=O)O)[C@@](O)(CC(=O)O)C(=O)O [(26)] as the compound, how does the CC50 (in vitro) read?
The CC50 was > 1000 nM.

For CC(C)CCOc1ccc(C[C@H](NC(=O)[C@@H](/C=C/CCCCCCC(=O)CCCCC2CCCCC2)[C@](O)(CC(=O)O)C(=O)O)C(=O)O)cc1 [(38)], which CC50 (Huh-3-1 cells) is on record?
Its CC50 is > 1000 nM.

And the IC50 (HCV replicon)?
The IC50 was 24 nM.

For CCCCCCCC(=O)CCCCCC/C=C/[C@H](C(=O)N[C@@H](Cc1ccc(OCC=C(C)C)cc1)C(=O)O)[C@@](O)(CC(=O)OC)C(=O)O [(41)], which CC50 (in vitro) is on record?
Its CC50 is > 1000 nM.

Which CC50 (in vitro) does the source give for CCCCCCCC(=O)CCCCCC/C=C/[C@H](C(=O)N[C@@H](Cc1ccc(OCC=C(C)C)cc1)C(=O)OC)[C@@](O)(CC(=O)OC)C(=O)O [(42)] here?
Its CC50 is > 1000 nM.

With CCCCCCC(O)C(=O)CCCCCC/C=C/[C@H](C(=O)N[C@@H](Cc1ccc(O)cc1)C(=O)O)[C@@](O)(CC(=O)O)C(=O)O (stereo partly shown) [(43)] as the compound, how does the CC50 (in vitro) read?
Its CC50 is > 1000 nM.

Which CC50 (in vitro) does the source give for CCCCCCCC(=O)CCCCCC/C=C/[C@H](C(=O)N[C@@H](Cc1c[nH]c2ccccc12)C(=O)O)[C@@](O)(CC(=O)O)C(=O)O [(44)] here?
Its CC50 is > 1000 nM.

Which CC50 (in vitro) does the source give for CCCCCCC(O)C(=O)CCCCCC/C=C/[C@H](C(=O)N[C@@H](Cc1ccc(OCC=C(C)C)cc1)C(=O)O)[C@@](O)(CC(=O)O)C(=O)O (stereo partly shown) [(45)] here?
Its CC50 is > 1000 nM.

For CCCCCCCC(CCCCCC/C=C/[C@H](C(=O)N[C@@H](Cc1ccc(OCC=C(C)C)cc1)C(=O)O)[C@@](O)(CC(=O)O)C(=O)O)=NOC [(54)], which CC50 (in vitro) is on record?
The CC50 was > 50000 nM.

With CCCCCCCC(=O)CCCCCC/C=C/[C@H](C(=O)N[C@@H](Cc1ccc(OCCC(C)C)cc1)C(=O)O)[C@@](O)(CC(=O)O)C(=O)O [Compound (46)] as the compound, how does the CC50 (in vitro) read?
Its CC50 is > 5000 nM.

Which CC50 (in vitro) does the source give for CCCCCCCC(O)CCCCCC/C=C/[C@H](C(=O)N[C@@H](Cc1ccc(OCC=C(C)C)cc1)C(=O)O)[C@@](O)(CC(=O)O)C(=O)O (stereo partly shown) [Compound (47)] here?
The CC50 was > 5000 nM.

With CCCCCCCC(=O)CCCCCC/C=C/[C@H](C(=O)N[C@@H](Cc1ccc(O)cc1)C(=O)O)[C@@](O)(CC(=O)O)C(=O)O [Compound (48)] as the compound, how does the CC50 (in vitro) read?
Its CC50 is > 5000 nM.

With CCCCCCCC(=O)CCCCCCCC[C@H](C(=O)N[C@@H](Cc1ccc(O)cc1)C(=O)O)[C@@](O)(CC(=O)O)C(=O)O [Compound (49)] as the compound, how does the CC50 (in vitro) read?
Its CC50 is > 50000 nM.

For CCCCCCCC(=O)CCCCCC/C=C/[C@H](C(=O)N[C@@H](Cc1ccc(OCC=C(C)C)cc1)C(N)=O)[C@@](O)(CC(N)=O)C(N)=O [Compound (50)], which CC50 (in vitro) is on record?
Its CC50 is > 5000 nM.

Which results are given for CCCCCCCC(=O)CCCCCC/C=C/[C@H](C(=O)N[C@@H](Cc1ccc(OCC=C(C)C)cc1)C(=O)O)[C@@](O)(CC(=O)O)C(=O)O [Compound (51)]?
CC50 (Huh-3-1 cells): > 5000 nM; IC50 (HCV replicon): 72 nM

For CCCCCCCCCCCCCC/C=C/[C@H](C(=O)N[C@@H](Cc1ccc(OCC=C(C)C)cc1)C(=O)O)[C@@](O)(CC(=O)O)C(=O)O [Compound (52)], which CC50 (in vitro) is on record?
The CC50 was > 50000 nM.

What about the IC50 (HCV replicon; Hepatitis C virus, 72 h) of the same compound?
Its IC50 is 100 nM.

For CCCCCCCCCCCC(=O)N[C@@H](CO)C[C@H](O)c1ccccc1 [HPA-12, reference compound], which “HCV replication (replicon activity) versus viable cell count” value (HCV replicon) is on record?
Its value is “suppressing the HCV replication at non-cytotoxic concentrations”.

Which “HCV replication (replicon activity) versus viable cell count” value (HCV replicon) does the source give for CCCC[C@@H](C)[C@@H](OC(=O)C[C@@H](CC(=O)O)C(=O)O)[C@H](C[C@@H](C)C[C@H](O)CCCC[C@@H](O)C[C@H](O)[C@H](C)N)OC(=O)C[C@@H](CC(=O)O)C(=O)O [fumonisin B1, reference compound] here?
The value was “suppressing the HCV replication at non-cytotoxic concentrations”.

Which results are given for CCCCCCC(=O)CCCCCC/C=C/C[C@@H](O)[C@H](O)[C@@](N)(CO)C(=O)O [myriocin]?
IC50 (HCV RNA replication): 1 to 10 nM; HCV replication (replicon activity) versus viable cell count (HCV replicon): suppressing the HCV replication at non-cytotoxic concentrations; IC50 (HCV protein (NS3)): 1 to 10 nM

What does the source list for “si246: siRNA targeting LCB1, a subunit of the SPT heterodimer; SEQ ID NO: 1 (CAUCGUUUCAGGCCCUCCATT; chemistry not given here)”?
effect of siRNA treatment on cytotoxicity (Huh-3-1 cells): almost no effect; HCV replicon activity compared with control siRNA-treated cells (HCV replicon): strong inhibitory effect; LCB1 protein expression compared with control siRNA [1]: Particularly strong inhibition of expression

Which results are given for “si633: siRNA targeting LCB1, a subunit of the SPT heterodimer; SEQ ID NO: 2 (UGACAUGGCUGACCUCGAGTT; chemistry not given here)”?
effect of siRNA treatment on cytotoxicity (Huh-3-1 cells): almost no effect; HCV replicon activity compared with control siRNA-treated cells (HCV replicon): significantly inhibited; LCB1 protein expression compared with control siRNA [1]: decrease the level of LCB1 protein expression
